Results reported in PubChem BioAssay AID248 (DTP/NCI, 2004).
Toxic doses and inconclusive results are not listed. Cut-off read from the data, not from the text of the source: active = T/C of 150% or more; inactive = T/C below 125%.

Test system: L1210 leukemia ip in BDF1 mice, survival T/C
Experiment: NCI In Vivo Anticancer Drug Screen. Data for tumor model L1210 Leukemia (intraperitoneal) in B6D2F1 (BDF1) mice
Conditions: endpoint: mean survival time, higher = longer survival
Method in brief: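 Mice bearing the transplanted tumor received compound or vehicle. Survival of the treated group was divided by that of the vehicle-treated control group to give the ratio.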

[1] = dose: 100.0 mg/kg/injection, schedule: Q04DX003 (ip), vehicle: Klucel (hydroxypropylcellulose) (HPC)
[2] = dose: 200.0 mg/kg/injection, schedule: Q04DX003 (ip), vehicle: Klucel (hydroxypropylcellulose) (HPC)
[3] = dose: 400.0 mg/kg/injection, schedule: Q04DX003 (ip), vehicle: Klucel (hydroxypropylcellulose) (HPC)
[4] = dose: 100.0 mg/kg/injection, schedule: Q01DX001 (ip), vehicle: saline
[5] = dose: 200.0 mg/kg/injection, schedule: Q01DX001 (ip), vehicle: saline
[6] = dose: 100.0 mg/kg/injection, schedule: Q04DX003 (ip), vehicle: acetone
[7] = dose: 200.0 mg/kg/injection, schedule: Q04DX003 (ip), vehicle: acetone
[8] = dose: 400.0 mg/kg/injection, schedule: Q04DX003 (ip), vehicle: acetone
[9] = dose: 100.0 mg/kg/injection, schedule: Q04DX002 (ip), vehicle: Klucel (hydroxypropylcellulose) (HPC)
[10] = dose: 200.0 mg/kg/injection, schedule: Q04DX002 (ip), vehicle: Klucel (hydroxypropylcellulose) (HPC)
[11] = dose: 400.0 mg/kg/injection, schedule: Q04DX002 (ip), vehicle: Klucel (hydroxypropylcellulose) (HPC)
[12] = dose: 25.0 mg/kg/injection, schedule: Q01DX001 (ip), vehicle: saline with Tween-80
[13] = dose: 50.0 mg/kg/injection, schedule: Q01DX001 (ip), vehicle: saline with Tween-80
[14] = dose: 100.0 mg/kg/injection, schedule: Q01DX001 (ip), vehicle: saline with Tween-80
[15] = dose: 100.0 mg/kg/injection, schedule: Q01DX009 (ip), vehicle: Klucel (hydroxypropylcellulose) (HPC)
[16] = dose: 200.0 mg/kg/injection, schedule: Q01DX009 (ip), vehicle: Klucel (hydroxypropylcellulose) (HPC)
[17] = dose: 400.0 mg/kg/injection, schedule: Q01DX009 (ip), vehicle: Klucel (hydroxypropylcellulose) (HPC)
[18] = dose: 100.0 mg/kg/injection, schedule: Q01DX001 (ip), vehicle: Klucel (hydroxypropylcellulose) (HPC)
[19] = dose: 200.0 mg/kg/injection, schedule: Q01DX001 (ip), vehicle: Klucel (hydroxypropylcellulose) (HPC)
[20] = dose: 400.0 mg/kg/injection, schedule: Q01DX001 (ip), vehicle: Klucel (hydroxypropylcellulose) (HPC)

Measured: T/C

NC(N)=N/N=C(/c1ccccc1)c1ccccc1N
inactive: dose: 15.0 mg/kg/injection, schedule: Q01DX Z (ip), vehicle: methylcellulose (MC) 105 % of control | dose: 30.0 mg/kg/injection, schedule: Q01DX Z (ip), vehicle: methylcellulose (MC) 102 % of control | dose: 60.0 mg/kg/injection, schedule: Q01DX Z (ip), vehicle: methylcellulose (MC) 105 % of control | dose: 120.0 mg/kg/injection, schedule: Q01DX Z (ip), vehicle: methylcellulose (MC) 97 % of control | dose: 120.0 mg/kg/injection, schedule: Q01DX Z (oral), vehicle: methylcellulose (MC) 88 % of control | dose: 240.0 mg/kg/injection, schedule: Q01DX Z (ip), vehicle: methylcellulose (MC) 88 % of control | dose: 240.0 mg/kg/injection, schedule: Q01DX Z (oral), vehicle: methylcellulose (MC) 98 % of control | dose: 480.0 mg/kg/injection, schedule: Q01DX Z (oral), vehicle: methylcellulose (MC) 101 % of control

CC(=O)Nc1ccc(Cl)c(Cl)c1
inactive: [1] 107 % of control | dose: 100.0 mg/kg/injection, schedule: Q04DX003 (ip), vehicle: other 101 % of control | [2] 114 % of control | dose: 200.0 mg/kg/injection, schedule: Q04DX003 (ip), vehicle: other 98 % of control | [3] 87 % of control | dose: 400.0 mg/kg/injection, schedule: Q04DX003 (ip), vehicle: other 101 % of control

Cc1ccc(S(=O)(=O)ON2C(=O)c3cccc4cc([N+](=O)[O-])cc(c34)C2=O)cc1
inactive: [4] 95 % of control | [5] 101 % of control | dose: 400.0 mg/kg/injection, schedule: Q01DX001 (ip), vehicle: saline 104 % of control

O=[N+]([O-])c1ccc(S(=O)Cc2ccccc2)c2c1no[n+]2[O-] (centres undefined)
inactive: dose: 25.0 mg/kg/injection, schedule: Q04DX003 (ip), vehicle: saline with Tween-80 100 % of control

CCCCCCCCN(CCCCCCCC)C(C)C(=O)c1ccc2cc(Br)c3ccccc3c2c1 (centres undefined)
inactive: [6] 96 % of control | [7] 107 % of control | [8] 103 % of control

CC1OC(CO)C(O)C(O)C1NC(=O)c1ccccc1 (centres undefined)
inactive: dose: 50.0 mg/kg/injection, schedule: Q01DX009 (ip), vehicle: saline with Tween-80 98 % of control | dose: 100.0 mg/kg/injection, schedule: Q01DX009 (ip), vehicle: saline with Tween-80 103 % of control | dose: 200.0 mg/kg/injection, schedule: Q01DX009 (ip), vehicle: saline with Tween-80 103 % of control

CN(Cc1ccccc1)C(=O)NC(C)(C)C
inactive: [9] 121 % of control | [10] 102 % of control | [11] 105 % of control

CC(=O)CC(=O)CF.CC(=O)CC(=O)CF.[Cu]
inactive: dose: 12.0 mg/kg/injection, schedule: Q01DX001 (ip), vehicle: saline 90 % of control | dose: 25.0 mg/kg/injection, schedule: Q01DX001 (ip), vehicle: saline 107 % of control

O=C(COc1ccc(Cl)c(Cl)c1)Nc1ccc[n+](CC(=O)c2cccc(S(=O)(=O)F)c2)c1
inactive: [12] 96 % of control | [13] 98 % of control | [14] 107 % of control

C=C(Cl)CSCC
inactive: dose: 100.0 mg/kg/injection, schedule: Q04DX003 (ip), vehicle: saline with Tween-80 111 % of control

CCOC(=O)C1CC2C=CC1C2 (centres undefined)
inactive: [15] 106 % of control | [1] 111 % of control | [16] 101 % of control | [2] 100 % of control | [17] 103 % of control | [3] 105 % of control

CCOC(=O)C(CCN1CCCCC1)c1cccc2ccccc12 (centres undefined)
inactive: [1] 100 % of control | [2] 88 % of control

Cc1cc(O)c(N=Nc2ccccc2)cc1C
inactive: [15] 102 % of control | [1] 101 % of control | [16] 96 % of control | [2] 96 % of control | [17] 96 % of control | [3] 92 % of control

COc1cc(C(=O)Cl)cc(OC)c1OC
inactive: dose: 18.75 mg/kg/injection, schedule: Q04DX003 (ip), vehicle: saline with Tween-80 107 % of control | dose: 37.5 mg/kg/injection, schedule: Q04DX003 (ip), vehicle: saline with Tween-80 102 % of control | dose: 75.0 mg/kg/injection, schedule: Q04DX003 (ip), vehicle: saline with Tween-80 95 % of control

CCC1(c2ccccc2)C(=O)NC(=S)N(C)C1=O (centres undefined)
inactive: dose: 75.0 mg/kg/injection, schedule: Q01DX001 (ip), vehicle: other 95 % of control | dose: 150.0 mg/kg/injection, schedule: Q01DX001 (ip), vehicle: other 96 % of control

ICc1ccc(CI)cc1
inactive: dose: 25.0 mg/kg/injection, schedule: Q01DX009 (ip), vehicle: saline 100 % of control | dose: 100.0 mg/kg/injection, schedule: Q01DX001 (ip), vehicle: other 106 % of control | [6] 106 % of control | dose: 200.0 mg/kg/injection, schedule: Q01DX001 (ip), vehicle: other 88 % of control | dose: 400.0 mg/kg/injection, schedule: Q01DX001 (ip), vehicle: other 88 % of control

CN(C)Cc1ccccc1COC(=O)c1ccccc1
inactive: [9] 119 % of control | [10] 105 % of control | [11] 97 % of control

CCC(=O)Oc1ccc(OCc2ccccc2)cc1
inactive: [15] 95 % of control | [1] 95 % of control | [16] 97 % of control | [2] 98 % of control | [17] 98 % of control | [3] 95 % of control

CCOC(=O)Nc1ccc(SC)cc1
inactive: dose: 100.0 mg/kg/injection, schedule: Q01DX009 (ip), vehicle: saline 94 % of control | dose: 200.0 mg/kg/injection, schedule: Q01DX009 (ip), vehicle: saline 100 % of control | dose: 400.0 mg/kg/injection, schedule: Q01DX009 (ip), vehicle: saline 103 % of control

CC1(c2ccccc2)SC(C)(c2ccccc2)SC(c2ccccc2)(c2ccccc2)S1 (centres undefined)
inactive: [18] 100 % of control | [19] 98 % of control | [20] 91 % of control

CCSc1ncnc2c1nnn2C1OC(CO)C(O)C1O (centres undefined)
inactive: dose: 12.5 mg/kg/injection, schedule: Q01DX001 (ip), vehicle: saline with Tween-80 100 % of control | [12] 102 % of control | [13] 97 % of control | [14] 103 % of control | dose: 200.0 mg/kg/injection, schedule: Q01DX001 (ip), vehicle: saline with Tween-80 108 % of control

O=S(=O)(OCC1CO1)c1ccc(Cl)c(Cl)c1 (centres undefined)
inactive: dose: 100.0 mg/kg/injection, schedule: Q01DX008 (ip), vehicle: Klucel (hydroxypropylcellulose) (HPC) 96 % of control | dose: 200.0 mg/kg/injection, schedule: Q01DX008 (ip), vehicle: Klucel (hydroxypropylcellulose) (HPC) 102 % of control | dose: 400.0 mg/kg/injection, schedule: Q01DX008 (ip), vehicle: Klucel (hydroxypropylcellulose) (HPC) 106 % of control

CN(C)c1ccc(/C=N/NC(=S)Nc2ccccc2)cc1
inactive: [15] 109 % of control | [16] 98 % of control | [17] 94 % of control

CC(=O)C(c1ccccc1)N(C)C(=O)c1ccccc1 (centres undefined)
inactive: [6] 93 % of control | [7] 86 % of control | [8] 89 % of control

CC1(C)OCC(C(OC(=O)c2ccc([N+](=O)[O-])cc2)C(OC(=O)c2ccc([N+](=O)[O-])cc2)C2COC(C)(C)O2)O1 (centres undefined)
inactive: [18] 103 % of control | [19] 100 % of control | [20] 100 % of control

c1ccc([Si]2(c3ccccc3)O[Si](c3ccccc3)(c3ccccc3)O[Si](c3ccccc3)(c3ccccc3)O2)cc1
inactive: dose: 75.0 mg/kg/injection, schedule: Q01DX001 (ip), vehicle: saline 93 % of control | dose: 150.0 mg/kg/injection, schedule: Q01DX001 (ip), vehicle: saline 87 % of control

CCCCCCC[As](=O)(O)CCCCCCC
inactive: dose: 50.0 mg/kg/injection, schedule: Q01DX001 (ip), vehicle: saline 106 % of control | [4] 103 % of control | [5] 101 % of control
